Experiments:
BGMK = assay type: cell-based, primate
RK-13 = assay type: cell-based, rabbit
RL5 = assay type: cell-based, rabbit

Measured: effect of rapamycin on replication of myxoma virus (virus titre by foci formation on BGMK cells)

CO[C@H]1C[C@@H]2CC[C@@H](C)[C@@](O)(O2)C(=O)C(=O)N2CCCC[C@H]2C(=O)O[C@H]([C@H](C)C[C@@H]2CC[C@@H](O)[C@H](OC)C2)CC(=O)[C@H](C)/C=C(\C)[C@@H](O)[C@@H](OC)C(=O)[C@H](C)C[C@H](C)/C=C/C=C/C=C/1C [rapamycin]
no effect: all assays above
